# Publication PMC10501326, “A Phase I Study of the Pan-Notch Inhibitor CB-103 for Patients with Advanced Adenoid Cystic Carcinoma and Other Tumors” (Cancer Research Communications, 2023)
# “And” between values parts separate entries of the source, which are not always exact repeats. Equal values may be shown once. Read-outs that look alike come from different tables or passages of the source.
# Tests used:
# [1] = Phase I/II safety and tolerability: DLTs and treatment-related adverse events (CTCAE v4.03); format: in vivo
# From the text: The study was an open-label, nonrandomized, phase I/II dose-escalation study with planned expansion cohorts. […] Part B was a potential expansion phase at the MTD/RP2D to determine preliminary evidence of antitumor activity and to confirm safety among patients stratified by preselected cancer indications.
# Part A was based on a two-parameter Bayesian logistic regression model (BLRM) to investigate safety and tolerability of sequentially enrolled dose cohorts of 3–6 patients. The first 2 participants of each cohort were enrolled in a staggered approach with at least 1 day apart between first dosing.
# 12-lead electrocardiograms and Holter safety monitoring with periodic cardiac imaging was employed. Efficacy assessments used RECIST v1.1 applied to CT/MRI scans performed at screening and every 8 weeks; or evaluated complete remission with complete hematologic recovery by National Comprehensive Cancer Network guideline criteria for T-ALL/T-LBL. Adherence to study drug administration was evaluated using both patient diaries and capsule counts.
# Secondary endpoints included assessment of clinical benefit rate [CBR; defined as achieving complete and/or partial response and/or stable disease (SD) at prespecified benchmarks], duration of response, progression-free survival (PFS) and overall survival (OS), and plasma pharmacokinetics.
# The SS was the primary population for all safety and efficacy analyses, except for determination of dose-DLT relationship.
# Under this model, and accounting for dropouts and some additional patients enrolled to each cohort, approximately 55 patients were anticipated to enroll in dose escalation and approximately 45 patients in the confirmatory phase. […] All statistical analyses were analyzed using SAS v9.4 software.
# [2] = Plasma pharmacokinetics (LC/MS-MS); format: in vivo, human; conditions: for half-life: SD, read-out: Plasma elimination half-life (t1/2) (converted)
# Procedure: Plasma pharmacokinetics were assessed for CB-103 via blood samples taken on days 1 (predose, 0.5, 1, 2, 4, 6, 8 hours postdose ± 5 minutes, and 12 hours postdose ± 15 minutes), 2 (24-hour post-day 1, predose), 3 (predose), 8 (predose, 0.5, 1, 2, 4, 6, and 8 hour postdose ± 5 minutes), 9 (24-hour post-day 8, predose), 15, and 22 (predose, and 1 hour postdose) in cycle 1. In cycle 2, on day 1 (predose, 0.5, 1, 2, 6, and, 8 hours postdose ± 5 minutes) and 15 (predose); in cycles 3–6 once at each visit (predose or postdose). For a twice daily dose schedule, pharmacokinetic timepoints were adjusted to evaluate concentration-versus-time curves after morning and evening doses on days 1 and 8.
# CB-103 concentrations were determined by validated high-performance LC/MS-MS method and analyzed descriptively using Phoenix WinNonlin v6.3 (Pharsight Corporation). Data at timepoints collected were used to generate a population pharmacokinetic model to estimate AUC and Cmax to associate with safety and efficacy.
smiles,measurement,setting,value
CC(C)(C)c1ccc(Oc2ccc(N)cn2)cc1 [CB-103],Patients with grade 3–4 TRAEs,[1]; n = 79,15 patients (%) and 15 (19%) patients (%)
same,Median duration of interruption for TRAEs,[1]; range: 1–14,5 days
same,AUC,"[2]; human, plasma, oral, 13 mg, Cohort 1 (13 mg), Cycle 1, Day 1, read-out: Mean AUC24",174 ng·h/mL
same,Cmax,"[2]; human, plasma, oral, 13 mg, Cohort 1 (13 mg), Cycle 1, Day 1, read-out: Mean Cmax",44.4 ng/mL
same,AUC,"[2]; human, plasma, oral, 13 mg, Cohort 1 (13 mg), Cycle 1, Day 8, read-out: Mean AUC24",433 ng·h/mL
same,Cmax,"[2]; human, plasma, oral, 13 mg, Cohort 1 (13 mg), Cycle 1, Day 8, read-out: Mean Cmax",58.7 ng/mL
same,AUC,"[2]; human, plasma, oral, 26 mg, Cohort 2 (26 mg), Cycle 1, Day 1, read-out: Mean AUC24",220 ng·h/mL
same,Cmax,"[2]; human, plasma, oral, 26 mg, Cohort 2 (26 mg), Cycle 1, Day 1, read-out: Mean Cmax",53.7 ng/mL
same,AUC,"[2]; human, plasma, oral, 52 mg, Cohort 3 (52 mg), Cycle 1, Day 1, read-out: Mean AUC24",496 ng·h/mL
same,Cmax,"[2]; human, plasma, oral, 52 mg, Cohort 3 (52 mg), Cycle 1, Day 1, read-out: Mean Cmax",98.5 ng/mL
same,AUC,"[2]; human, plasma, oral, 52 mg, Cohort 3 (52 mg), Cycle 1, Day 8, read-out: Mean AUC24",999 ng·h/mL
same,Cmax,"[2]; human, plasma, oral, 52 mg, Cohort 3 (52 mg), Cycle 1, Day 8, read-out: Mean Cmax",154 ng/mL
same,AUC,"[2]; human, plasma, oral, 104 mg, Cohort 4 (104 mg), Cycle 1, Day 1, read-out: Mean AUC24",1440 ng·h/mL
same,Cmax,"[2]; human, plasma, oral, 104 mg, Cohort 4 (104 mg), Cycle 1, Day 1, read-out: Mean Cmax",368 ng/mL
same,AUC,"[2]; human, plasma, oral, 104 mg, Cohort 4 (104 mg), Cycle 1, Day 8, read-out: Mean AUC24",3690 ng·h/mL
same,Cmax,"[2]; human, plasma, oral, 104 mg, Cohort 4 (104 mg), Cycle 1, Day 8, read-out: Mean Cmax",418 ng/mL
same,AUC,"[2]; human, plasma, oral, 148 mg, Cohort 5 (148 mg), Cycle 1, Day 1, read-out: Mean AUC24",1260 ng·h/mL
same,Cmax,"[2]; human, plasma, oral, 148 mg, Cohort 5 (148 mg), Cycle 1, Day 1, read-out: Mean Cmax",482 ng/mL
same,AUC,"[2]; human, plasma, oral, 148 mg, Cohort 5 (148 mg), Cycle 1, Day 8, read-out: Mean AUC24",2830 ng·h/mL
same,Cmax,"[2]; human, plasma, oral, 148 mg, Cohort 5 (148 mg), Cycle 1, Day 8, read-out: Mean Cmax",427 ng/mL
same,AUC,"[2]; human, plasma, oral, 217 mg, Cohort 6 (217 mg), Cycle 1, Day 1, read-out: Mean AUC24",2620 ng·h/mL
same,Cmax,"[2]; human, plasma, oral, 217 mg, Cohort 6 (217 mg), Cycle 1, Day 1, read-out: Mean Cmax",731 ng/mL
same,AUC,"[2]; human, plasma, oral, 217 mg, Cohort 6 (217 mg), Cycle 1, Day 8, read-out: Mean AUC24",4250 ng·h/mL
same,Cmax,"[2]; human, plasma, oral, 217 mg, Cohort 6 (217 mg), Cycle 1, Day 8, read-out: Mean Cmax",912 ng/mL
same,AUC,"[2]; human, plasma, oral, 250 mg, Cohort 9 (250 mg BID), Cycle 1, Day 1, read-out: Mean AUC24",6140 ng·h/mL
same,Cmax,"[2]; human, plasma, oral, 250 mg, Cohort 9 (250 mg BID), Cycle 1, Day 1, read-out: Mean Cmax",1010 ng/mL
same,AUC,"[2]; human, plasma, oral, 250 mg, Cohort 9 (250 mg BID), Cycle 1, Day 8, read-out: Mean AUC24",11700 ng·h/mL
same,Cmax,"[2]; human, plasma, oral, 250 mg, Cohort 9 (250 mg BID), Cycle 1, Day 8, read-out: Mean Cmax",1310 ng/mL
same,AUC,"[2]; human, plasma, oral, 300 mg, Cohort 10 (300 mg BID 5/2), Cycle 1, Day 1, read-out: Mean AUC24",10400 ng·h/mL
same,Cmax,"[2]; human, plasma, oral, 300 mg, Cohort 10 (300 mg BID 5/2), Cycle 1, Day 1, read-out: Mean Cmax",1630 ng/mL
same,AUC,"[2]; human, plasma, oral, 300 mg, Cohort 10 (300 mg BID 5/2), Cycle 1, Day 8, read-out: Mean AUC24",11300 ng·h/mL
same,Cmax,"[2]; human, plasma, oral, 300 mg, Cohort 10 (300 mg BID 5/2), Cycle 1, Day 8, read-out: Mean Cmax",1390 ng/mL
same,AUC,"[2]; human, plasma, oral, 348 mg, Cohort 7 (348 mg), Cycle 1, Day 1, read-out: Mean AUC24",3520 ng·h/mL
same,Cmax,"[2]; human, plasma, oral, 348 mg, Cohort 7 (348 mg), Cycle 1, Day 1, read-out: Mean Cmax",1150 ng/mL
same,AUC,"[2]; human, plasma, oral, 348 mg, Cohort 7 (348 mg), Cycle 1, Day 8, read-out: Mean AUC24",6880 ng·h/mL
same,Cmax,"[2]; human, plasma, oral, 348 mg, Cohort 7 (348 mg), Cycle 1, Day 8, read-out: Mean Cmax",874 ng/mL
same,AUC,"[2]; human, plasma, oral, 400 mg, Cohort 11 (400 mg BID 5/2), Cycle 1, Day 1, read-out: Mean AUC24",14900 ng·h/mL
same,Cmax,"[2]; human, plasma, oral, 400 mg, Cohort 11 (400 mg BID 5/2), Cycle 1, Day 1, read-out: Mean Cmax",1620 ng/mL
same,AUC,"[2]; human, plasma, oral, 400 mg, Cohort 11 (400 mg BID 5/2), Cycle 1, Day 8, read-out: Mean AUC24",14100 ng·h/mL
same,Cmax,"[2]; human, plasma, oral, 400 mg, Cohort 11 (400 mg BID 5/2), Cycle 1, Day 8, read-out: Mean Cmax",2400 ng/mL
same,AUC,"[2]; human, plasma, oral, 500 mg, Cohort 12 (500 mg BID 5/2), Cycle 1, Day 1, read-out: Mean AUC24",14200 ng·h/mL
same,Cmax,"[2]; human, plasma, oral, 500 mg, Cohort 12 (500 mg BID 5/2), Cycle 1, Day 1, read-out: Mean Cmax",2390 ng/mL
same,AUC,"[2]; human, plasma, oral, 500 mg, Cohort 12 (500 mg BID 5/2), Cycle 1, Day 8, read-out: Mean AUC24",18600 ng·h/mL
same,Cmax,"[2]; human, plasma, oral, 500 mg, Cohort 12 (500 mg BID 5/2), Cycle 1, Day 8, read-out: Mean Cmax",2760 ng/mL
same,Cmax,"[2]; human, plasma, oral, 500 mg, individual patients, total dose 500 mg, twice daily dosing, read-out: Cmax",1230 ng/mL
same,AUC,"[2]; human, plasma, oral, 522 mg, Cohort 8 (522 mg), Cycle 1, Day 1, read-out: Mean AUC24",5910 ng·h/mL
same,Cmax,"[2]; human, plasma, oral, 522 mg, Cohort 8 (522 mg), Cycle 1, Day 1, read-out: Mean Cmax",1230 ng/mL
same,AUC,"[2]; human, plasma, oral, 522 mg, Cohort 8 (522 mg), Cycle 1, Day 8, read-out: Mean AUC24",13500 ng·h/mL
same,Cmax,"[2]; human, plasma, oral, 522 mg, Cohort 8 (522 mg), Cycle 1, Day 8, read-out: Mean Cmax",1740 ng/mL
same,Cmax,"[2]; human, plasma, oral, 800 mg, individual patient, total dose 800 mg, twice daily dosing, read-out: Cmax",1730 ng/mL
same,half-life,"[2]; human, plasma, oral, cycle 1 day 1, 8.5",16.5 h
same,Cmax,"[2]; human, plasma, oral, cycle 1 day 1, entire sampled cohort, read-out: Mean Cmax",731 ng/mL
same,half-life,"[2]; human, plasma, oral, cycle 1 day 8, 42.6",37.7 h
same,AUC,"[2]; human, plasma, oral, entire sampled cohort, read-out: Mean AUC from 0 to 24",3160 ng·h/mL
same,Tmax,"[2]; human, plasma, oral, day 1 of cycle 1, dose-escalation cohorts 1 through 8, read-out: Peak (tmax)",0.5 to 2 h
same,Cmax,"[2]; individual patients, total dose 500 mg, twice daily dosing, read-out: Cmax",1800 ng/mL
same,Cmax,"[2]; individual patients, total dose 600 mg, twice daily dosing",638 ng·h/mL and 2100 ng·h/mL and 1280 ng·h/mL and 1220 ng·h/mL and 1710 ng·h/mL
same,Cmax,"[2]; individual patients, total dose 1000 mg, twice daily dosing",4420 ng·h/mL and 2580 ng·h/mL and 3760 ng·h/mL and 2410 ng·h/mL and 1240 ng·h/mL
